The values that follow come from patent publication US8664379B2, “Fused heterocyclic compounds as ion channel modulators” (Gilead Sciences, Inc., priority 2008, dated 2014).

The target of one series is T1, hERG potassium channel (Homo sapiens, UniProt Q12809).
T1 construct: expressed in transfected cells
Put plainly: hERG screening assay (PatchXpress patch clamp). The class given is cell-based. The settings on record: hERG expressed in CHO cells, peak current at -50 mV; for hERG Patch Clamp hERG % blk 1 μm: 1 μM test compound; for hERG Patch Clamp hERG % blk 10 μm: 10 μM test compound. How it is done: Compounds were screened to test their activity in blocking the hERG potassium channel. The hERG channel was heterologously expressed in a CHO (Chinese Hamster Ovary) cell line. Cells were maintained with standard tissue culture procedures and stable channel expression was maintained with 500 μg/ml G418 in the culture medium. Cells were harvested for testing on the PatchXpress automated patch clamp with Accumax (Innovative Cell Technologies, San Diego, Calif.) to isolate single cells.
The following solutions were used for electrophysiological recordings. The external solution contained: 2 mM CaCl2; 2 mM MgCl2; 4 mM KCl; 150 mM NaCl; 10 mM Glucose; 10 mM HEPES (pH 7.4 with 1M NaOH, osmolarity). The internal solution contained: 140 mM KCl, 10 mM MgCl2, 6 mM EGTA, 5 mM HEPES, 5 mM ATP (pH adjusted to 7.25 with KOH).
hERG channels are activated when the voltage is stepped to +20 mV from the −80 mV holding potential. During a 5 second step at +20 mV, the channels activated and then largely inactivated, so the currents were relatively small. Upon returning to −50 mV from +20 mV, hERG currents transiently became much larger as inactivation was rapidly removed and then the channel closed. The first step to −50 mV for 300 ms was used as a baseline for measuring the peak amplitude during the step to −50 mV after channel activation. The peak current at −50 mV was measured both under control conditions and after addition of compound.
All compounds were prepared as 10 mM DMSO stocks in glass vials. Stock solutions were mixed by vigorous vortexing and sonication for about 2 minutes at room temperature. For testing, compounds were diluted in glass vials using an intermediate dilution step in pure DMSO and then further diluted to working concentrations in external solution. Dilutions were prepared no longer than 20 minutes before use.
After achieving the whole-cell configuration, cells were monitored for 90 seconds to assess stability and washed with external solution for 66 seconds. The voltage protocol described above was then applied to the cells every 12 seconds and throughout the whole procedure. Only cells with stable recording parameters and meeting specified health criteria were allowed to enter the compound addition procedure.
External solution containing 0.1% DMSO (vehicle) was applied to the cells first to establish the control peak current amplitude. After allowing the current to stabilize for 3 to 5 minutes, 1 μM and then 10 μM test compounds were applied. Each compound concentration was added 4 times and cells were kept in test solution until the effect of the compound reached steady state or for a maximum of 12 minutes. After addition of test compound, a positive control (1 μM Cisapride) was added—it must block >95% of the current for the experiment to be considered valid. Washout in the external solution compartment was performed until the recovery of the current reached steady state. Data were analyzed using DataXpress, Clampfit (Molecular Devices, Inc., Sunnyvale) and Origin 7 (Originlab Corp.)
(The hERG channel carries a current that helps repolarise heart muscle cells.)

Series [1] has as its target wild-type human cardiac sodium channel, hNav1.5 (late sodium current) (Homo sapiens, UniProt Q14524). In words: Late INa screening assay (PatchXpress whole cell patch clamp). The class given is cell-based. The settings on record: HEK293, 10 μM test compound; HEK293 cells expressing hNav1.5; late INa generated with 10 μM Tefluthrin (some experiments 50 nM ATX II); read-out: Late INa % blk (10 μM test cmpd). How it is done: The late sodium current (Late INa) and peak sodium current (Peak INa) assays were performed on an automated electrophysiology platform, PatchXpress 7000A (MDS Analytical Technologies, Sunnyvale, Calif.), which uses the whole cell patch clamp technique to measure currents through the cell membrane of up to 16 cells at a time. The assay used an HEK293 (human embryonic kidney) cell line heterologously expressing the wild-type human cardiac sodium channel, hNav1.5, purchased from Millipore (Billerica, Mass.). No beta subunits were coexpressed with the Na channel alpha subunit. Cells were maintained with standard tissue culture procedures and stable channel expression was maintained with 400 μg/ml Geneticin in the culture medium. Cells isolated for use on PatchXpress were incubated for 5 minutes in Versene 1× and then for 2 minutes in 0.0125% Trypsin-EDTA (both at 37° C.) to ensure that 80-90% of the cells are single and not part of a cell cluster. Experiments were carried out at 24-27° C.
For both the Late INa and Peak INa assays, series resistance compensation was set to 50% and whole-cell compensation was performed automatically. Currents were low-pass filtered at 10 kHz and digitized at 31.25 kHz. Currents through open sodium channels were automatically recorded and stored in the DataXpress2 database (MDS Analytical Technologies, Sunnyvale, Calif.). Analysis was performed using DataXpress2 analysis software and data are compiled in Excel.
Compound stocks were routinely made in glass vials to 10 mM in dimethyl sulfoxide (DMSO). In some cases, when compounds were not soluble in DMSO, they were made in 100% ethanol. Stocks were sonicated as necessary. The extracellular solution for screening Late INa was composed of: 140 mM NaCl, 4 mM KCl, 1.8 mM CaCl2, 0.75 mM MgCl2, and 5 mM HEPES with pH adjusted to 7.4 using NaOH. The extracellular solution for screening Peak INa was composed of: 20 mM NaCl, 120 mM N-methyl-D glucamine, 4 mM KCl, 1.8 mM CaCl2, 0.75 mM MgCl2, and 5 mM HEPES with pH adjusted to 7.4 using HCl. The intracellular solution used to perfuse the inside of the cells for both the Late INa and Peak INa assays contains: 120 mM CsF, 20 mM CsCl, 5 mM EGTA, 5 mM HEPES and pH adjusted to 7.4 with CsOH. Compounds were diluted in extracellular solution to 10 μM in glass vials and then transferred to glass well plates before robotic addition to the cells. The 0Na extracellular solution used at the end of each experiment for the Late INa and Peak INa assays to measure baseline current contained: 140 mM N-methyl-D-glucamine; 4 mM KCl; 1.8 mM CaCl2; 0.75 mM MgCl2; 5 mM HEPES and pH was adjusted to 7.4 with HCl.
For the Late INa assay, sodium channels were activated every 10 seconds (0.1 Hz) by depolarizing the cell membrane to −20 mV for 250 milliseconds (ms) from a holding potential of −120 mV. In response to a −20 mV voltage step, typical Nav1.5 sodium currents activated rapidly to a peak negative current and then inactivated nearly completely within 3-4 ms.
All compounds were tested to determine their activity in blocking the late sodium current. Late INa current is generated by adding 10 μM Tefluthrin (pyrethroid) to the extracellular solution while recording Na currents. For some experiments, 50 nM ATX II (sea anemone toxin), another late INa activator, was used to generate the late component. Both activators generate late components that are large enough that block of the late component by compounds can be measured easily. For the purposes of the screening, late INa is defined as the mean current between 225 ms and 250 ms after stepping to −20 mV to activate Na channels. After establishing the whole cell recording configuration, late INa activators were added to each well 4 times over a 16-17 minute period so that the late component of the Na current reached a stable value. Compounds were then added (typically at 10 μM), in the presence of late INa activator, with 3 additions over the course of 7 or 8 minutes. […]
In general terms: Patch clamp records ionic current or voltage across a cell membrane.

T1 sequence (Q12809 whole entry): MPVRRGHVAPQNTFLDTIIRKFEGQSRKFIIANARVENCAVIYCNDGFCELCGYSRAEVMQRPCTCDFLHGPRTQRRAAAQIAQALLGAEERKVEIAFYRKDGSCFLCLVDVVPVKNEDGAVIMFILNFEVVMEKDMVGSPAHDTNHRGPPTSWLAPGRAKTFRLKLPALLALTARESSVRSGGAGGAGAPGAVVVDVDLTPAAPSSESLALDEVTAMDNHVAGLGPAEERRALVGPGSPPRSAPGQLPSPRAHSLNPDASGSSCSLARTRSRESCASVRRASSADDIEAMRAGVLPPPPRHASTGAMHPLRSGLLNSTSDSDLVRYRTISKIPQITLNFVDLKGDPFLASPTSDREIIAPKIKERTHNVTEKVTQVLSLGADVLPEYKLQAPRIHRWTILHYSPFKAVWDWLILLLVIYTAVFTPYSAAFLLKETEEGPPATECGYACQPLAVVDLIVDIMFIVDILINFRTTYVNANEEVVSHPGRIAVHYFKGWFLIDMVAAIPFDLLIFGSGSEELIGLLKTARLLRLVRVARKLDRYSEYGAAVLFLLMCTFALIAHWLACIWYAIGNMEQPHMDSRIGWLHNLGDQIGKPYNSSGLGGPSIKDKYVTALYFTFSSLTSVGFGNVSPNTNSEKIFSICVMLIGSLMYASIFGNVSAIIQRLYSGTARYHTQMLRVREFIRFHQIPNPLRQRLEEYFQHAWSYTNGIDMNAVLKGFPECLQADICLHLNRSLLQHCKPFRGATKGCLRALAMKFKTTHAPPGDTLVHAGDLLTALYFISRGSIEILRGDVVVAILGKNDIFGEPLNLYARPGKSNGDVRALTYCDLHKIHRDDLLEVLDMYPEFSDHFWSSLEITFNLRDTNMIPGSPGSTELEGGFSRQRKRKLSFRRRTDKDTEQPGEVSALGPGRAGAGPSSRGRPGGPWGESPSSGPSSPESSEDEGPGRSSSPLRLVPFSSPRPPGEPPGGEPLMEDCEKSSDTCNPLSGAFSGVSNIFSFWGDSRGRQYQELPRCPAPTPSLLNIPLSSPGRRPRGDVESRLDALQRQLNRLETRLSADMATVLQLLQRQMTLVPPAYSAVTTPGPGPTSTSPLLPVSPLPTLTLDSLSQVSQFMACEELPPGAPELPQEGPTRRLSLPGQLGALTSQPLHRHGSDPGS
Chain of wild-type human cardiac sodium channel, hNav1.5 (late sodium current) (Q14524 whole entry): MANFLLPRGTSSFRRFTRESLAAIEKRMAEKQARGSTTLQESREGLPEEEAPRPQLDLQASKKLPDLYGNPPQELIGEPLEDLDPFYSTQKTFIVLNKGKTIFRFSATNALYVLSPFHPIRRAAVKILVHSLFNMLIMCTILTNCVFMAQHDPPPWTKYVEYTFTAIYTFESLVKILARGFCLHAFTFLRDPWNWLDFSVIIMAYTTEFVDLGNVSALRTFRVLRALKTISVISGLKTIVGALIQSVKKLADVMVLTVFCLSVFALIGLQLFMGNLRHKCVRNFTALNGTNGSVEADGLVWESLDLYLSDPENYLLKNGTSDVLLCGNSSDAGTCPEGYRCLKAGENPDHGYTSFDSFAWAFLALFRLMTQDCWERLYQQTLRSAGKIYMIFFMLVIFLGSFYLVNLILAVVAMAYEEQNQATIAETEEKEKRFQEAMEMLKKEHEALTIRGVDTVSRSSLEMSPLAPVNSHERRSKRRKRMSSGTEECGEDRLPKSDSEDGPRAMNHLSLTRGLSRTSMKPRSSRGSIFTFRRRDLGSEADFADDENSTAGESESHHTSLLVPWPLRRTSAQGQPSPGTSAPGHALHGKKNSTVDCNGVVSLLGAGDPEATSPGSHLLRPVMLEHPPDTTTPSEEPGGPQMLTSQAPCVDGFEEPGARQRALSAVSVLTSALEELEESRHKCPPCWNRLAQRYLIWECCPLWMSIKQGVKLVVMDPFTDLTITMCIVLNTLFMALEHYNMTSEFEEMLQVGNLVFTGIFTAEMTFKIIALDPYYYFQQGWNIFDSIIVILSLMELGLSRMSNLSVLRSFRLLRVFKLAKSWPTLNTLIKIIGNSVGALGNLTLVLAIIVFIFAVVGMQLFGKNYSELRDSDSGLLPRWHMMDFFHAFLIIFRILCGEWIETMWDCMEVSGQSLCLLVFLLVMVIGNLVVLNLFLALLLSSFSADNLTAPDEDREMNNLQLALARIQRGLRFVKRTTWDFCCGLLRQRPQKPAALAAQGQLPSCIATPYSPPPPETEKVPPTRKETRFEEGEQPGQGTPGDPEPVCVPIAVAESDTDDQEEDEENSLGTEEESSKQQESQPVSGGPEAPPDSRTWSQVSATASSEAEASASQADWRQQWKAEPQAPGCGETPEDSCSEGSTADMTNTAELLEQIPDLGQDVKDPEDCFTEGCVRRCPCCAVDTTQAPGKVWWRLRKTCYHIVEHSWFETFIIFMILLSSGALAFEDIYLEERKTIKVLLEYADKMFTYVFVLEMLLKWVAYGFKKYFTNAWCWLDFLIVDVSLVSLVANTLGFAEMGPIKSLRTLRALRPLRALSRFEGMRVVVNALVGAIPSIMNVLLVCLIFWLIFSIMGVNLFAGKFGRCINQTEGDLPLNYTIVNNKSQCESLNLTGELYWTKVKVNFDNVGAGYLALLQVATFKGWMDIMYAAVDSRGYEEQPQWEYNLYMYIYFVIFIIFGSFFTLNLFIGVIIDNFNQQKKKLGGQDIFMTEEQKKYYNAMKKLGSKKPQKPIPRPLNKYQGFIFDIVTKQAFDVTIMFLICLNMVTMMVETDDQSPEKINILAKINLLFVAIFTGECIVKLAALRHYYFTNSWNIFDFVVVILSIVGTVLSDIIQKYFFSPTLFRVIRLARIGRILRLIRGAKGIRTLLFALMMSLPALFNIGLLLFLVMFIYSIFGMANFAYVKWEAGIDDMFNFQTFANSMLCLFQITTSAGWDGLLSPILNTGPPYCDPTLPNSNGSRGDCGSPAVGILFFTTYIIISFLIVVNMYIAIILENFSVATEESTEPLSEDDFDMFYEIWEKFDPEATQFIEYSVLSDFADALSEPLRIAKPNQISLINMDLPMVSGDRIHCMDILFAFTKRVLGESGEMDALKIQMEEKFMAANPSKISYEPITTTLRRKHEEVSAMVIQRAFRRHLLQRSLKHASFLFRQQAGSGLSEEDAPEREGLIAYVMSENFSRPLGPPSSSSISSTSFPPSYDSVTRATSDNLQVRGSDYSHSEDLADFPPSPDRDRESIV

In the case of `O=C1CCc2cc(-c3cccc(F)c3)ccc2N1` [Compound 1, 6-(3-fluorophenyl)-3,4-dihydroquinolin-2(1H)-one], at hERG potassium channel, the “hERG Patch Clamp hERG % blk 1 μm” value is recorded as 10% and the “hERG Patch Clamp hERG % blk 10 μm” value amounted to 19%. Further, the inhibition at 10 µM in series [1] was determined as 74%.
For `O=C1CCc2cc(-c3ccccc3)ccc2N1` [Compound 4, 6-phenyl-3,4-dihydroquinolin-2(1H)-one], on hERG potassium channel, the “hERG Patch Clamp hERG % blk 1 μm” value was found to be 10% and the “hERG Patch Clamp hERG % blk 10 μm” value is 16%. In addition, in series [1], the inhibition at 10 µM stood at 48%.
With `O=C1CCc2cc(-c3ccc(C(F)(F)F)cc3)ccc2N1CCO` [Compound 14, 1-(2-hydroxyethyl)-6-[4-(trifluoromethyl)phenyl]-3,4-dihydroquinolin-2(1H)-one], at hERG potassium channel, the “hERG Patch Clamp hERG % blk 1 μm” value came out at 10% and the “hERG Patch Clamp hERG % blk 10 μm” value is listed as 28%. In addition, in series [1], the inhibition at 10 µM amounted to 29%.
For `O=C1CCc2cc(-c3ccc(F)c(F)c3)ccc2N1CCO` [Compound 15, 6-(3,4-difluorophenyl)-1-(2-hydroxyethyl)-3,4-dihydroquinolin-2(1H)-one], in that order: 13%, 59% and 36%.
In the case of `CN1C(=O)CCc2cc(-c3cccc(F)c3)ccc21` [Compound 21, 6-(3-fluorophenyl)-1-methyl-3,4-dihydroquinolin-2(1H)-one], at hERG potassium channel, the “hERG Patch Clamp hERG % blk 1 μm” value worked out at 11% and the “hERG Patch Clamp hERG % blk 10 μm” value is 36%. Also, the inhibition at 10 µM in series [1] turned out to be 65%.
Take `CCOC(=O)CN1C(=O)CCc2cc(-c3ccc(OC(F)(F)F)cc3)ccc21` [Compound 25, ethyl {2-oxo-6-[4-(trifluoromethoxy)phenyl]-3,4-dihydroquinolin-1(2H)-yl}acetate]: at hERG potassium channel, the “hERG Patch Clamp hERG % blk 1 μm” value is recorded as 26% and the “hERG Patch Clamp hERG % blk 10 μm” value is recorded as 32%. Moreover, in series [1], the inhibition at 10 µM came to 20%.
Consider `O=C1CCc2cc(-c3ccc(F)cc3F)ccc2N1Cc1csc(-c2ccc(Cl)cc2)n1` [Compound 26, 1-{[2-(4-chlorophenyl)-1,3-thiazol-4-yl]methyl}-6-(2,4-difluorophenyl)-3,4-dihydroquinolin-2(1H)-one], for which, at hERG potassium channel, the “hERG Patch Clamp hERG % blk 1 μm” value amounted to 10% and the “hERG Patch Clamp hERG % blk 10 μm” value is on record as 10%. Besides, the inhibition at 10 µM in series [1] stood at 20%.
Regarding `COCCN1C(=O)CCc2cc(-c3ccc(F)cc3F)ccc21` [Compound 27, 6-(2,4-difluorophenyl)-1-(2-methoxyethyl)-3,4-dihydroquinolin-2(1H)-one], on hERG potassium channel, the “hERG Patch Clamp hERG % blk 1 μm” value is reported as 12% and the “hERG Patch Clamp hERG % blk 10 μm” value came to 47%. The inhibition at 10 µM in series [1] was 52%.
Turning to `CC(C)(C)OC(=O)CN1C(=O)CCc2cc(-c3ccc(C(F)(F)F)cc3)ccc21` [Compound 29, tert-butyl {2-oxo-6-[4-(trifluoromethyl)phenyl]-3,4-dihydroquinolin-1(2H)-yl}acetate], on hERG potassium channel, the “hERG Patch Clamp hERG % blk 1 μm” value was determined as 11% and the “hERG Patch Clamp hERG % blk 10 μm” value is 97%. For the same compound, the inhibition at 10 µM in series [1] was determined as 69%.
As to `O=C1CCc2cc(-c3ccc(OC(F)(F)F)cc3)ccc2N1` [Compound 34, 6-[4-(trifluoromethoxy)phenyl]-3,4-dihydroquinolin-2(1H)-one], at hERG potassium channel, the “hERG Patch Clamp hERG % blk 1 μm” value amounted to 13% and the “hERG Patch Clamp hERG % blk 10 μm” value came to 37%. Besides, the inhibition at 10 µM in series [1] was 60%.
With `Cc1cc(CN2C(=O)CCc3cc(-c4ccc(OC(F)(F)F)cc4)ccc32)no1` [Compound 39, 1-[(5-methylisoxazol-3-yl)methyl]-6-[4-(trifluoromethoxy)phenyl]-3,4-dihydroquinolin-2(1H)-one], on hERG potassium channel, the “hERG Patch Clamp hERG % blk 1 μm” value is given as 12% and the “hERG Patch Clamp hERG % blk 10 μm” value is 96%. Besides, in series [1], the inhibition at 10 µM turned out to be 60%.
Regarding `O=C(O)CN1C(=O)CCc2cc(-c3ccc(C(F)(F)F)cc3)ccc21` [Compound 44, {2-oxo-6-[4-(trifluoromethyl)phenyl]-3,4-dihydroquinolin-1(2H)-yl}acetic acid], on hERG potassium channel, the “hERG Patch Clamp hERG % blk 1 μm” value was 10% and the “hERG Patch Clamp hERG % blk 10 μm” value is on record as 10%.
As for `COCCN1C(=O)CCc2cc(-c3ccc(C(F)(F)F)cc3)ccc21` [Compound 49, 1-(2-methoxyethyl)-6-[4-(trifluoromethyl)phenyl]-3,4-dihydroquinolin-2(1H)-one], on hERG potassium channel, the “hERG Patch Clamp hERG % blk 1 μm” value is 10% and the “hERG Patch Clamp hERG % blk 10 μm” value was found to be 42%. Moreover, the inhibition at 10 µM in series [1] was 60%.
Turning to `O=C(O)CN1C(=O)CCc2cc(-c3ccc(Cl)c(F)c3)ccc21` [Compound 58, [6-(4-chloro-3-fluorophenyl)-2-oxo-3,4-dihydroquinolin-1(2H)-yl]acetic acid], at hERG potassium channel, the “hERG Patch Clamp hERG % blk 1 μm” value is 10% and the “hERG Patch Clamp hERG % blk 10 μm” value came to 10%. Further, in series [1], the inhibition at 10 µM was 13%.
Consider `O=C(O)CN1C(=O)CCc2cc(-c3cccc(C(F)(F)F)c3)ccc21` [Compound 60, 2-(2-oxo-6-(3-(trifluoromethyl)phenyl)-3,4-dihydroquinolin-1(2H)-yl)acetic acid], for which, on hERG potassium channel, the “hERG Patch Clamp hERG % blk 1 μm” value worked out at 10% and the “hERG Patch Clamp hERG % blk 10 μm” value stood at 10%. Besides, in series [1], the inhibition at 10 µM came to 25%.
